Patent US20170007561A1, “CONTEMPORANEOUS, HETEROGENEOUSLY-ORIENTED, MULTI-TARGETED THERAPEUTIC MODIFICATION AND/OR MODULATION OF DISEASE BY ADMINISTRATION OF SULFUR-CONTAINING, AMINO ACID-SPECIFIC SMALL MOLECULES” (BioNumerik Pharmaceuticals, Inc., priority 2014, published 2017)
Where “and” joins values, the source holds several entries; their conditions need not be identical. Identical values can stand only once. Entries after “also recorded” stand apart in the source; their conditions may differ. Like-named read-outs stand apart in the source and are kept apart here.

Experiments:
[1] = system: bovine brain microtubule protein (α-/β-tubulin); experiment: Microtubule protein polymerization assay (OD350); format: biochemical
recombinant human Prx 1 = recombinant human Prx 1 (Homo sapiens, UniProt Q06830); experiment: Prx assay coupled to Trx, TrxR and NADPH; format: biochemical; conditions: initial velocity
Sequence of recombinant human Prx 1 (Q06830 whole entry): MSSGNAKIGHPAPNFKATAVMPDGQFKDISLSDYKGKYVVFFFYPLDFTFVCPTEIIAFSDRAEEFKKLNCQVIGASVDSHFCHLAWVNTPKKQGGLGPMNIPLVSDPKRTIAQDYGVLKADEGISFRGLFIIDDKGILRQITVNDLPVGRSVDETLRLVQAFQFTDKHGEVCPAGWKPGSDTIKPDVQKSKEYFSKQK
Experimental: Prx activity in the buffer control (Apo-Prx) and the Tavocept-treated sample (Prx-mesna) was determined using the Prx assay outlined in FIG. 58. A typical assay mixture was 150 μL in final volume and contained HEPES Buffer (45 mM, pH 7.0, 1 mM EDTA), 350 μM NADPH, 0.12 μM rat liver TrxR, 80 μM insulin, 2.9 μM human Trx 1, and Prx (4.8 or 2.4 μM per assay). Assays were initiated by the addition of H2O2 (100 μM) and were monitored at 340 nm at 25° C. for 30 minutes using a using a Molecular Devices SpectraMax Plus UV/vis plate reader. Activity was calculated using a 4 minute linear portion of each assay and then this rate was converted into percent of control with the buffer treated Prx 1 reaction (Apo-Prx) serving as a 100% control. See, FIG. 59. […] This reduction in rate is approximately 43% in assays containing 2.4 μM Prx and 23% in assays containing 4.8 μM Prx. See, FIG. 59. […] Therefore, as the concentration of unmodified Prx increases, the turnover more nearly approaches the buffer control Apo-Prx samples.

[2] = system: human breast, ovarian and lymphoma cancer cell lines; experiment: Paclitaxel induced apoptosis (PARP cleavage, Bcl-2 phosphorylation, DNA laddering); format: cell-based
From the text: (§1) Tavocept mediates the non-enzymatic xenobiotic modification of sulfur-containing amino acid residues (e.g., cysteine) on proteins. As an engineered, non-naturally occurring agent (i.e., xenobiotic), Tavocept is autocatalytic and requires no protein cofactor to cause the xenobiotic modification of cysteine, but appears to be specific for cysteine residues located within a particular structural context (i.e., not all cysteines in a protein are so modified). Tavocept-mediated, xenobiotic modification represents a novel mechanism of action for a cancer treating agent and can be compared to a degree with post-translational modifications of cysteine residues in proteins (see, Table 3, below).

human cancer cell lines = experiment: Paclitaxel- and platinum-induced cytotoxicity; format: cell-based
From the text: as §1

FTase = target: T1, FTase (Homo sapiens, UniProt P49354+P49356); experiment: FTase-mediated farnesylation of Dansyl-GCVLS peptide; format: biochemical
T1 construct: purchased Abcam
T1 sequence (P49356 whole entry, one chain of several): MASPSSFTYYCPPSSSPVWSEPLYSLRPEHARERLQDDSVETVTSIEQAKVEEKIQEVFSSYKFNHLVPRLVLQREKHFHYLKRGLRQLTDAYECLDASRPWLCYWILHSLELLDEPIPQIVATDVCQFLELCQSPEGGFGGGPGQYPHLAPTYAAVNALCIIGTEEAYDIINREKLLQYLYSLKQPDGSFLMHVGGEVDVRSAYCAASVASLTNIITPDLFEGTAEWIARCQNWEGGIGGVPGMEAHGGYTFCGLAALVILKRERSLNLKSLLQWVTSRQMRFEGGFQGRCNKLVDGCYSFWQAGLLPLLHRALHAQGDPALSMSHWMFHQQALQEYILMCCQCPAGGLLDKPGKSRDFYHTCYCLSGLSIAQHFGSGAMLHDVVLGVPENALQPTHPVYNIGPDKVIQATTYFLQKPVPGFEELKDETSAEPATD
From the text: Panel A: Progress curve showing FTase-mediated farnesylation of Dansyl-GCVLS peptide. Panel B: Relative rates from reactions shown in Panel A.

bovine TrxR = target: T2, bovine TrxR (Bos taurus, UniProt O62768); experiment: TrxR NADPH oxidation assay without Trx (Reaction A); format: biochemical
T2 construct: purchased American Diagnostica
T2 sequence (O62768 1-499): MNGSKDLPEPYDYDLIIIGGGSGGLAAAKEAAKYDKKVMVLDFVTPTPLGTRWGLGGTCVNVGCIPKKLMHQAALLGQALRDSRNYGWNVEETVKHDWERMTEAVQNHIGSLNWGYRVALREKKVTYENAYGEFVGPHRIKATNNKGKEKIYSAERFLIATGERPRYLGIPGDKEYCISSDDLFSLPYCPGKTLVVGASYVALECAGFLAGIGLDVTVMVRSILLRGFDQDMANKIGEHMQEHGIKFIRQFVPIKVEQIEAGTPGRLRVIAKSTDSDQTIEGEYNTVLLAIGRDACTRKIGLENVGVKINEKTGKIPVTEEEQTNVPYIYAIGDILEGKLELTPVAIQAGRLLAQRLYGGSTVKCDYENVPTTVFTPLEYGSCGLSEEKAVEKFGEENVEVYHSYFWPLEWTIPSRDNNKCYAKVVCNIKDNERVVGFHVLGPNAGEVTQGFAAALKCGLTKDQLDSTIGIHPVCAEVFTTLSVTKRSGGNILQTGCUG

[3] = target: T3, human glutaredoxin (Grx1) (Homo sapiens, UniProt P35754); experiment: X-ray crystallography of Tavocept-derived mesna adduct on Grx; format: binding; conditions: Tavocept 40 mM, 4° C. overnight
T3 construct: 6xHis (TEV-cleavable) (N, cleaved yes); made in house; host or cells: E. coli BL21 (RIPL)
T3 sequence (P35754 whole entry): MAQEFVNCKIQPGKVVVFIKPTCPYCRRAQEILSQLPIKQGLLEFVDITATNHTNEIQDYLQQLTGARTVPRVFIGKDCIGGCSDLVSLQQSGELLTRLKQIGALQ
From the text: Diffraction data were collected at the Advanced Light Source (ALS) (Berkeley, Calif.). […] Data was processed using the program package MosFlm as part of the ccp4 program package.
Data was indexed, integrated, scaled and merged using the program Mosflm. […] The solution was consistent with one molecule in the crystal asymmetric unit. […] The structure solution is supported by contiguous electron density for the entire chain trace of each molecule, landmark side chain density features matching the amino acid sequence including cysteines, absence of phi-psi violations and final R/Rfree values in the normal range. […] Residues Gln39 and Glu55 have missing side-chain atoms in the final structures (side chain atoms CD, CG, OE1, NE2 and CD, OE1, OE2, respectively).

[4] = target: T4, Mesenchymal Epithelial Transition (MET) Factor Kinase (Homo sapiens, UniProt P08581); experiment: MET kinase activity (summary Table 27); format: biochemical
T4 construct: the kinase domain of MET (residues 956-end) was used in these experiments; GST (N); purchased SignalChem M52-18G-10; host or cells: Sf9
T4 sequence (P08581 956-1390 limits assumed): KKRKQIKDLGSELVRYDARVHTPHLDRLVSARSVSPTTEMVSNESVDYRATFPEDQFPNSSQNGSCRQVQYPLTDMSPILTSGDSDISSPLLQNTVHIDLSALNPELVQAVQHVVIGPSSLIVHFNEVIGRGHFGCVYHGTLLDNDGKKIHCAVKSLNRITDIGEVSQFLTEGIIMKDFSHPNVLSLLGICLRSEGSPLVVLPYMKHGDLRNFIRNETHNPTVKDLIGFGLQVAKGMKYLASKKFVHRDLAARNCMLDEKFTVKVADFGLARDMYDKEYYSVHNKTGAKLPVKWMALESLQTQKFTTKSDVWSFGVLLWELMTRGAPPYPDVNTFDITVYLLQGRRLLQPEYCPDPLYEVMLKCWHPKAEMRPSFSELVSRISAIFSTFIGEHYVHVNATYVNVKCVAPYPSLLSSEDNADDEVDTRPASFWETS

[5] = cited from earlier work

O=S(=O)([O-])CCSSCCS(=O)(=O)[O-].[Na+].[Na+] [Tavocept, disodium 2,2′-dithio-bis-ethane sulfonate]
inhibition of paclitaxel promoted microtubule protein polymerization ([1]; 12 mM Tavocept, qualitative): approximately 50%
effect on paclitaxel-promoted microtubule protein hyperpolymerization ([1]; Tavocept 1, 4, 8, 12 and 16 mM, paclitaxel 10 μM): inhibit paclitaxel-promoted microtubule protein hyperpolymerization in a dose-dependent manner; also recorded: normalizes
effect on GTP-catalyzed polymerization of microtubule protein ([1]; Tavocept 4, 6, 8, and 10 mM preincubated with microtubule protein on ice for 20 minutes): dose-dependent inhibitory effect; also recorded: inhibit GTP-catalyzed polymerization; also recorded: modulate tubulin polymerization in a concentration dependent manner
effect on paclitaxel/GTP/MgCl2-catalyzed microtubule protein hyperpolymerization ([1]; Tavocept 6, 8, 10 and 12 mM): inhibit paclitaxel/GTP/MgCl2-catalyzed microtubule protein hyperpolymerization in a dose dependent manner
Tavocept concentration at which final polymerization with paclitaxel was essentially equal to GTP control ([1]; paclitaxel 10 μM): ≥ 6 mM
Tavocept concentrations that reproducibly inhibit paclitaxel promoted hyperpolymerization ([1]; paclitaxel 10 μM): > 1 mM
Tavocept concentrations giving net polymerization equivalent to GTP/MgCl2 only control ([1]; paclitaxel/GTP/MgCl2 10 μM/1 mM/1 mM): 6 to 8 mM
activity of Tavocept-modified Prx versus Apo-Prx (recombinant human Prx 1): less active
interference with paclitaxel induced apoptosis [2]: does not interfere
interference with paclitaxel- and platinum-induced cytotoxicity (human cancer cell lines): not to interfere
effect on FTase activity (FTase): Inhibition of FTase activity
Reduction by TrxR alone (bovine TrxR; Reaction A): did not detectably reduce
NADPH Oxidation, Reaction A (bovine TrxR; TrxR alone + NADPH, no Trx, disulfide 0.5 mM): 0.3 ± 0.01 nmol/min/mL
Mesna adduct sites on Grx by X-ray [3]: Cys7 and Cys82
Cellular consequence of BNP7787-modification and/or modulation: MET [4]: Modification of non-active site cysteine(s) resulting in enzyme
Tavocept in plasma ([5]; 41 g/m^2 Tavocept): ~14 mM
concentrations of Tavocept achieved in the clinic ([5]; as high as): ≤ 18000 µM
pharmacologically achievable plasma levels ([5]; doses of 18.4 g/m^2 and higher): ≥ 8 mM
Plasma concentrations achieved in clinical trials ([5]; in vivo): 10000 µM
pharmacologically achievable concentrations ([5]; in vivo): 6-10 mM
Cmax ([5]; read-out: Cmax values in plasma, dose of 18.4 g/m^2): ≥ 10000 µM and ~10000 µM
Cmax ([5]; read-out: Cmax values in plasma, doses as high as 41 g/m^2, typical): ~10000 µM
Cmax ([5]; read-out: typical Cmax values, administered at 18 g/m^2): ~10000 µM
